In patent US8946247B2, “Quinazoline carboxamide azetidines” (Merck Patent GmbH, priority 2010, dated 2015):

What was measured:
Akt1 = biological target: T1, Akt1 (Homo sapiens, UniProt P31749); test: AKT/PKB Kinase Assay; type: biochemical; details: His-AKT (Full Length), 160 uM ATP, 90 min at 25 C
T1 construct: 0.1 ng/ul His-AKT (Full Length), (Invitrogen, Part #P2999, Lot #641228C); His; purchased Invitrogen P2999
Outline: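 Full-length His-tagged human AKT1 (0.1 ng/ul) with 1 uM FITC-labelled GRPRTSSFAEG peptide, 160 uM ATP, 1 mM MgCl2, 1 mM DTT in 100 mM HEPES pH 7.5, 90 min at 25 C, EDTA stop. Substrate/product peptides separated by off-chip mobility shift; IC50 fitted from % conversion dose-response.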

P70S6K (T412E mutant) = biological target: T2, P70S6K (T412E mutant) (Homo sapiens, UniProt P23443, T412E); test: p70S6K Enzyme Assay; type: biochemical; details: 24 μM ATP, 90 min at 25° C., Caliper mobility shift
T2 construct: purchased Millipore
T2 sequence (P23443 1-421 T412E limits assumed): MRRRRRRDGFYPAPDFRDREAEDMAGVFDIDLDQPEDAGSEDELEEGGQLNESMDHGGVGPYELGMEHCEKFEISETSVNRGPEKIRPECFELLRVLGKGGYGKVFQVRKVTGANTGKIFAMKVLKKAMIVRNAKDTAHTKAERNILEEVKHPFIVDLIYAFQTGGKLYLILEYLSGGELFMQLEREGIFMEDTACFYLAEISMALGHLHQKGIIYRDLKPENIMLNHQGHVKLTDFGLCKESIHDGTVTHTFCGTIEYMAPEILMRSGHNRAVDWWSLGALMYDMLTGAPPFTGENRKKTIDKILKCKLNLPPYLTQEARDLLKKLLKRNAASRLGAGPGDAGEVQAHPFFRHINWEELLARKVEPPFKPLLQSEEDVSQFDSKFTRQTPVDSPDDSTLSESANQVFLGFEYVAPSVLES
Outline: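 Mobile-shift assay: 3 nM P70S6K T412E with 24 μM ATP and 1 μM FITC-labelled S6-derived peptide in Hepes pH 7.5, MgCl2, DTT, Brij; 90 min at 25 °C, stopped with EDTA. Substrate/phosphopeptide ratio separated electrophoretically on Caliper LabChip; IC50 determined.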

pS6 MDA-MB-468 = test: Cellular Activity Assay (phospho-S6 in MDA-MB-468 cells); type: cell-based; details: Homo sapiens, 2 hr compound incubation, percent pS6-positive cells
Outline: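 MDA-MB-468 cells treated with compound for 2 hr, fixed, then immunostained for phospho-S6 with propidium iodide counterstain. Green (pS6) and red (total) cells counted by laser-scanning cytometry; IC50 derived from percent pS6-positive cells versus compound concentration.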

Aurora B = biological target: T3, Aurora B (Homo sapiens, UniProt Q96GD4); test: Aurora B Kinase Assay; type: biochemical; details: GST-Aurora B (1-344), 10 uM ATP, 90 min at 25 C
T3 construct: GST-Aurora B (1-344 amino acids); GST (N); purchased Carna Biosciences 05-102
T3 sequence (Q96GD4 whole entry, the tested form may be a part): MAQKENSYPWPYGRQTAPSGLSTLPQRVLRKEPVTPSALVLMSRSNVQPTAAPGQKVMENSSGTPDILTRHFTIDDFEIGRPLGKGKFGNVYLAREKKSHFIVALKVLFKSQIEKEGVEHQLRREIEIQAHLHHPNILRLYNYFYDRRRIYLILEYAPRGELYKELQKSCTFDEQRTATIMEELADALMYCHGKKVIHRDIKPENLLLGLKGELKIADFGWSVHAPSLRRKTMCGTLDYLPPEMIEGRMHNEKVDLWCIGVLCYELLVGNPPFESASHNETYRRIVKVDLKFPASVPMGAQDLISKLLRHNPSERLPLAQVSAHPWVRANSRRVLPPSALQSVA
T3 sequence (Q9NQS7 803-918 partner limits assumed): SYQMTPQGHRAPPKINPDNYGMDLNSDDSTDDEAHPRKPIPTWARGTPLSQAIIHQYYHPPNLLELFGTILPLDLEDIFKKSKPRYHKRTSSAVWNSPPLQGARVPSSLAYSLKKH
Outline: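 GST-Aurora B (aa 1-344, with His-INCENP) at 0.1 ng/ul, 10 uM ATP and 1 uM FITC-LRRASLG peptide in HEPES pH 7.5 with MgCl2 and DTT, 90 min at 25 C, stopped with EDTA. Substrate-to-product conversion read by off-chip mobility shift; IC50 from sigmoidal dose-response fit.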

T1 sequence (P31749 whole entry): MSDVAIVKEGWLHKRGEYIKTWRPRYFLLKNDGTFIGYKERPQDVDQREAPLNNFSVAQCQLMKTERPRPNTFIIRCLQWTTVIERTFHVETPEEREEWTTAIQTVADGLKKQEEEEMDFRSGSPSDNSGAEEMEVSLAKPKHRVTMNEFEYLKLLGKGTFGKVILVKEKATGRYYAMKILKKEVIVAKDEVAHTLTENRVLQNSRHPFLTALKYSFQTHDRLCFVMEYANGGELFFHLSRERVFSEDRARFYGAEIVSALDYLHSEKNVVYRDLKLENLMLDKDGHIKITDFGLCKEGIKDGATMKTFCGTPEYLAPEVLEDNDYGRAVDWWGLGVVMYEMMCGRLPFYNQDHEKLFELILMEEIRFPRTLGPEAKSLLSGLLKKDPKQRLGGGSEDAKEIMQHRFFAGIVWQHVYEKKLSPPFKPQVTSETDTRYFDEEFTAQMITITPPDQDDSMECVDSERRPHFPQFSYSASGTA

SMILES: CC1CCN1C[C@@H](Nc1ncnc2c(C(N)=O)cccc12)c1ccc(F)c(C(F)(F)F)c1 (stereo partly drawn) [Example 48, 4-[(S)-1-(4-Fluoro-3-trifluoromethyl-phenyl)-2-(2-methyl-azetidin-1-yl)-ethylamino]-quinazoline-8-carboxylic acid amide]
- IC50 (Akt1): 11 nM
- IC50 (P70S6K (T412E mutant)): 3 nM
- IC50 (pS6 MDA-MB-468): 391 nM
- IC50 (Aurora B): 120 nM

SMILES: NC(=O)c1cccc2c(N[C@H](CN3CC(F)C3)c3ccc(F)c(C(F)(F)F)c3)ncnc12 [Example 49, 4-[(S)-2-(3-Fluoro-azetidin-1-yl)-1-(4-fluoro-3-trifluoromethyl-phenyl)-ethylamino]-quinazoline-8-carboxylic acid amide]
- IC50 (Akt1): 16 nM
- IC50 (P70S6K (T412E mutant)): 5 nM
- IC50 (pS6 MDA-MB-468): 116 nM
- IC50 (Aurora B): 540 nM
